Assay results published in patent US6448032B1, “Human melanocyte stimulating hormone receptor polypeptide and DNA” (priority 1992, dated 2002).
No end group written: not given here.

Experiments:
[1] = target: T1, MSH receptor (Homo sapiens, UniProt Q01726); test: Inhibition of 125I-NDP-MSH binding to stable COS-7 cell line harbouring pRC/CMV-11D; settings: NDP-MSH radioligand competition
T1 construct: This polypeptide constitutes the entire polypeptide of an MSH receptor; expressed in transfected cells; host or cells: COS-7 cells, transient, plasmid pE-11D (pcDNAI)
T1 sequence (Q01726 whole entry): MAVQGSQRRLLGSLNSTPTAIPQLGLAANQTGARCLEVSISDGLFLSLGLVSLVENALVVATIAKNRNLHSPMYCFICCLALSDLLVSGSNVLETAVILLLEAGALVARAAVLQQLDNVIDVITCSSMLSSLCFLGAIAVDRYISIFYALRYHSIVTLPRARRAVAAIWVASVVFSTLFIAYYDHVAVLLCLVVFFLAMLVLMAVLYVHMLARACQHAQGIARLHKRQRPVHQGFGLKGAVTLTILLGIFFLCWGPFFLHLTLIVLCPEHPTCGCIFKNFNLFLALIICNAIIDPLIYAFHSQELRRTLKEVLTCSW
Protocol: COS-7 cells (available from ATCC) were grown in Dulbecco's modified Eagle medium with 8% fetal calf serum and non-essential amino acids (Gibco/BRL, 8400 Helgerman Court, Gaithersburg, Md. 20877, USA) in serum free medium, five hours after transfection, serum containing medium was replaced, and cells were cultivated for 48 hours. At this time selection for the calls stably harbouring the pRC/CMV-11D plasmid was begun by growing the cells in neomycin (0.5 mg/ml) containing medium (selection medium). Selection procedure was continued for two weeks, replacing the selection medium every 4th day. surviving cells were collected and maintained in the selection medium. These cells constitute the stable cell line.
To investigate the binding properties cells were scraped off from the culture flask, centrifuged, resuspended in selection medium, plated on 48 well, and allowed to grow for 24 hours. […] Radioactivity was counted and data analyzed by an iterative, non-linear curve fitting programme suitable for radioligand binding analysis. […]

[2] = target: T1, MSH receptor; test: Inhibition of 125I-NDP-MSH binding to COS-7 cells transfected with MSH receptor cDNA (pE-11D); settings: pE-11D transfected COS-7 cells
Protocol: Eighty percent confluent cultures were transfected with 1 μg of pE-11D plasmid DNA and 40 μg lipofectin (BRL, 8400 Helgerman Court, Gaithersburg, Md. 20877, USA) in serum free medium. Five hours after transfection, serum containing medium was replaced, and cells were cultivated for 20 hours. Cells were then scraped off, centrifuged, resuspended in serum containing medium, plated on 48 well plates, and allowed to grow for 24 hours. […] Radioactivity was counted and data analyzed by iterative, non-linear curve fitting programme suitable for radioligand binding analysis (see FIG. 6).

[3] = target: T2, MC-2 receptor (Homo sapiens, UniProt P33032); test: Inhibition of 125I-NDP-MSH binding to COS-7 cells transfected with pE-MC-2; settings: pE-MC-2 transfected COS-7 cells
T2 construct: expressed in transfected cells; host or cells: COS-7 cells, transient, plasmid pE-MC-2 (pRC/CMV)
T2 sequence (P33032 whole entry): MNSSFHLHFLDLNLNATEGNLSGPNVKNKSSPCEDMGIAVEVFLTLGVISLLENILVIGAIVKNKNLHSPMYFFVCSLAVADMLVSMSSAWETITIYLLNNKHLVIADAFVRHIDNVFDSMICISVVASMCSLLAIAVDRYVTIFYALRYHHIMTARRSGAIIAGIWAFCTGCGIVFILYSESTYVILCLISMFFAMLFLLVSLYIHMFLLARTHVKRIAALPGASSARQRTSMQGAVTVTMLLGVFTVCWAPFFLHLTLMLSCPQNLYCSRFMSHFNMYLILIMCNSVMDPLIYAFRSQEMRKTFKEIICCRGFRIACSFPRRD
Protocol: Eighty percent confluent cultures were transfected with 1 μg of pE-MC-2 plasmid DNA and 40 μg lipofectin (BRL, 8400 Helgerman Court, Gaithersburg, Md. 20877, USA) in serum free medium. Five hours after transfection, serum containing medium was replaced, and cells were cultivated for 20 hours. Cells were then scraped off, centrifuged, resuspended in serum containing medium, plated on 48 well plates, and allowed to grow for 24 hours. […] Radioactivity was counted and data analyzed by iterative, non-linear curve fitting programme suitable for radioligand binding analysis (see FIG. 9).

[4] = 37° C., 2 hours, Ki from IC-50 by Cheng and Prusoff equation, read-out: Ki for inhibiting 125I-NDP-MSH binding

`CSCC[C@H](N)C(=O)N[C@@H](CCC(=O)O)C(=O)N[C@@H](Cc1c[nH]cn1)C(=O)N[C@@H](Cc1ccccc1)C(=O)N[C@@H](CCCNC(=N)N)C(=O)N[C@@H](Cc1c[nH]c2ccccc12)C(=O)NCC(=O)O` [ACTH (4-10)] was tested, and the “binding affinity for the expressed MSH receptor” value [1] was “very low binding affinity”.
In the case of “SYSMEHFRWGKPVGKKRRPVKVYPNGAEDESAEAFPLEF [ACTH (1-39)]”, the Ki [2, 4] is reported as 0.17 ± 0.037 nM and the Ki [3, 4] is reported as 929 ± 389 nM.
For “β-endorphin: non-melanotropic POMC peptide”, the “affinity for the expressed MSH receptor” value ([2]; 125I-NDP-MSH competition) was “no affinity”, the “affinity for the expressed MC-2 receptor” value ([3]; 125I-NDP-MSH competition) was “no affinity” and the “binding affinity for the expressed MSH receptor” value [1] was “no affinity”.
